Source: US9133241B2, “Peptide compositions” (TARIX PHARMACEUTICALS LTD., priority 2013, dated 2015)

How the values were obtained:
[1] = test system: human umbilical vein endothelial cells (HUVEC); assay: BDNF production in HUVEC (BDNF Emax immunoassay of cell medium); format: cell-based; details: for lowest dose stimulating significant BDNF expression: serum-free medium, 24 hours stimulation
Experimental: (§1) Prior to stimulation, cells were washed twice with sterile PBS and then provided with the respective serum free cell medium. Cells were incubated in the serum-free medium for one hour and afterwards stimulated for 24 hours. For the dose response measurement the peptides were used in a range from 10^−14M to 10^−6M. For all other experiments, a 10^−7M concentration of the peptides was used, whereas isoproterenol and forskolin were used in a 10^−6M concentration. To maintain the concentration of the substances over a period of 24 hours they were added again into the medium after 12 hours. After stimulation, the concentration of BDNF was determined in the cell medium. The samples were either used directly or stored at −80° C.
(§2) For the determination of the concentration of BDNF the BDNF Emax® immunoassay system from Promega was used. At first, 96-well plates were coated with anti-BDNF overnight at 4° C. The next day, the plates were washed with TBST and incubated with blocking buffer for one hour at room temperature. Afterwards, the plate was washed again with TBST, and 100 μl of sample were applied per well. The plate was incubated on a shaker (˜400 rpm) for two hours at room temperature and later on washed five times with TBST. To each well 100 μl pAb anti-human BDNF were added, and the plate again incubated under continuous shaking for two hours at room temperature. Thereafter, the plate was washed five times with TBST, each well applied with 100 μl anti-IgY-HRP conjugate, and incubated at room temperature with shaking for one hour. Then, the plate was washed five times with TBST and incubated for 10 min at room temperature on a shaker with TMB One Solution. The reaction was stopped with 1 M hydrochloric acid and the absorbance was measured immediately at 450 nm. The BDNF concentration was determined from a standard curve.

[2] = test system: human dermal microvascual endothelial cells (HDMEC); assay: BDNF production in HDMEC (BDNF Emax immunoassay of cell medium); format: cell-based; details: for lowest dose stimulating BDNF expression: serum-free medium, 24 hours stimulation
Experimental: as §1, §2

HUVEC cells = assay: cAMP production in HUVEC (cAMP enzyme immunoassay of cell lysate); format: cell-based, human; details: 15 minutes stimulation
Experimental: Prior to stimulation with Ala^1-Arg^2-Val^3-Ser^4-Ile^5-His^6-Cys^7 (SEQ ID NO: 18), HUVEC cells were washed twice with PBS and then incubated for 1 hour in serum-free medium. In this Example, in order to generate a dose response curve, the peptide concentration ranged from 1×10^−13-1×10^−6 M. After 15 minutes stimulation, the medium containing peptide was removed and the cells were lysed (0.1M HCl, 0.1% Triton X-100). The clear lysate was collected, and 25 μl were used for determining the protein concentration (Pierce BCA Protein Assay Kit, Thermo Scientific, Rockford, USA) and the remaining fraction stored at −80° C. for later analysis.
cAMP concentration in cell lysates was determined using cAMP Enzyme Immunoassay Kit, Direct from Sigma-Aldrich (St. Louis, Mo., USA). Briefly, wells of 96-well plate (Goat Anti-Rabbit IgG pre-coated) were neutralized with 50 μl of Neutralizing Reagent. Next, 100 μl of acetylated cyclic AMP standard or cell lysate was added, followed by 50 μl of blue cAMP-Alkaline Phosphatase Conjugate and 50 μl of yellow EIA Rabbit Anti-cAMP antibody. The plate was then incubated on a shaker (˜500 rpm) for two hours at room temperature. […] The enzymatic reaction was stopped by adding 50 μl of Stop Solution, and the absorbance at 405 nm was measured immediately. The cAMP concentration was determined from non-linear standard curve using GraphPad Prism 5.0 software. […]

[3] = test system: transient middle cerebral artery occlusion (tMCAO) rat model of stroke; assay: Forelimb placement test, tMCAO rat model of stroke; format: in vivo; details: 50 μg/kg SC once per day; for forelimb placement: first day of statistically significant improvement vs vehicle: tMCAO rats; for forelimb placement score improvement vs vehicle control / forelimb placement score improvement vs vehicle control, percent: by day 50
Experimental: (§3) For the purposes of this Example, Transient middle cerebral artery occlusion (tMCAO) procedure Day is defined as “Day 1” in this study. On the day of surgery anesthesia were induced with 4% isoflurane in a mixture of 70% N2O and 30% O2 and maintained with 1.5-2% isoflurane.
(§4) The tMCAO procedures were performed according to the method described R. Schmid-Elsaesser et al., A critical reevaluation of the intraluminal thread model of focal cerebral ischemia: evidence of inadvertent premature reperfusion and subarachnoid hemorrhage in rats by laser-doppler flowmetry, Stroke, 1998, 29(10): 2162-2170. Briefly, the right CCA (Common Carotid Artery) was exposed through a midline neck incision and carefully dissected free from surrounding nerves and fascia—from its bifurcation to the base of the skull. The occipital artery branches of the ECA (External Carotid Artery) were then isolated, and these branches were dissected and coagulated. The ECA was dissected further distally and coagulated along with the terminal lingual and maxillary artery branches, which was then divided. The ICA (Internal Carotid Artery) was isolated and carefully separated from the adjacent vagus nerve, and the pterygopalatine artery was ligated close to its origin with a 5-0 nylon suture (SMI, Belgium). Next, a 4-0 silk suture was tied loosely around the mobilized ECA stump, and a 4 cm length of 4-0 monofilament nylon suture (the tip of the suture was blunted by using a flame, and the suture was coated with polylysine, prior to insertion) was inserted through the proximal ECA into the ICA and thence into the circle of Willis, effectively occluding the MCA. The surgical wound was closed and the animals were returned to their cages to recover from anesthesia. One hour and a half after occlusion rats were re-anesthetized, the monofilament was withdrawn to allow reperfusion, the surgical wound was closed and rats were returned to their cages.
(§5) Animals were subjected to a modified Modified Neurological Rating Scale (mNRS) at 24 hours post reperfusion. Only animals with an overall score of ≧10 were included in this study. Animals were allocated into the test groups, according to the mNRS results on day 2, in order to have similar distribution of rats performance between groups. Starting on day 2, 24 hours post-surgery, each animal was administered one of 50 μg/kg of either TXA301 (SEQ ID NO: 20) or TXA302 (SEQ ID NO: 18) or […]; via subcutaneous (SC) administration.
The limb placing tests were divided into both forelimb and hindlimb tests. For the forelimb-placing test, the examiner held the rat close to a tabletop and scored the rat's ability to place the forelimb on the tabletop in response to whisker, visual, tactile, or proprioceptive stimulation. Similarly, for the hindlimb placing test, the examiner assessed the rat's ability to place the hindlimb on the tabletop in response to tactile and proprioceptive stimulation. Separate sub-scores were obtained for each mode of sensory input and added to give total scores (for the forelimb placing test: 0=normal, 12=maximally impaired; for the hindlimb placing test: 0=normal; 6=maximally impaired). Scores were given in half-point increments as follows: whisker placing (0-2), visual placing-forward (0-2), -sideways (0-2); tactile placing-dorsal (0-2), -lateral (0-2); proprioceptive placing (0-2); for a total of 0-12.

[4] = test system: transient middle cerebral artery occlusion (tMCAO) rat model of stroke; assay: Stepping test, tMCAO rat model of stroke; format: in vivo; details: 50 μg/kg SC once per day, tMCAO rats
Experimental: as §3
(§6) The tMCAO procedures were performed according to the method described R. Schmid-Elsaesser et al., A critical reevaluation of the intraluminal thread model of focal cerebral ischemia: evidence of inadvertent premature reperfusion and subarachnoid hemorrhage in rats by laser-doppler flowmetry, Stroke, 1998, 29(10): 2162-2170. Briefly, the right CCA (Common Carotid Artery) was exposed through a midline neck incision and carefully dissected free from surrounding nerves and fascia—from its bifurcation to the base of the skull. The occipital artery branches of the ECA (External Carotid Artery) were then isolated, and these branches were dissected and coagulated. […]
Animals were tested for forelimb akinesia in a stepping test. The animal was held with its hind limbs fixed with one hand and the forelimb not monitored with the other, while the unrestrained fore-paw touches a table. The number of adjusting steps were counted while the animal was moved sideways along the table surface (85 cm in approximately five seconds), in the forehand & backhand direction for both forelimbs.

[5] = test system: transient middle cerebral artery occlusion (tMCAO) rat model of stroke; assay: Body swing test, tMCAO rat model of stroke; format: in vivo; details: 50 μg/kg SC once per day, tMCAO rats
Experimental: as §3, §6
The rat was held approximately one inch from the base of its tail. […] A swing was recorded whenever the rat moved its head out of the vertical axis to either side. Before attempting another swing, the rat had to return to the vertical position for the next swing to be counted. Twenty (20) total swings were counted. […] Body swing scores are expressed as a percentage of […] over total swings.

[6] = test system: transient middle cerebral artery occlusion (tMCAO) rat model of stroke; assay: Modified Neurological Rating Scale (mNRS), tMCAO rat model of stroke; format: in vivo; details: 50 μg/kg SC once per day, tMCAO rats
Experimental: as §3
as §6, with “coagulated. The ECA was dissected further distally and coagulated along with the terminal lingual and maxillary artery branches, which was then divided. The ICA (Internal Carotid Artery) was isolated and carefully separated from the adjacent vagus nerve, and the pterygopalatine artery was ligated close to its origin with a 5-0 nylon suture (SMI, Belgium).” for “coagulated.”

[7] = test system: transient middle cerebral artery occlusion (tMCAO) rat model of stroke; assay: Cerebral blood flow and vessel diameter (laser Doppler), tMCAO rat model of stroke; format: in vivo; details: day 50; 50 μg/kg SC
Experimental: as §3, §4, §5
Evaluation of blood flow in the cerebral cortex and vessel constriction was carried out using a Flow-R Laser Doppler system, in which intracranial blood flow and vessels diameter (constriction/dilation) was monitored. The Doppler procedure was carried out on Day 50 after the stroke and was performed while the animals were under isoflurane anesthesia.

| Substance | lowest dose stimulating significant BDNF expression [1] [nM] | lowest dose stimulating BDNF expression [2] [nM] | dose of observed maximum cAMP (HUVEC cells) | lowest dose giving significant increase in cAMP (HUVEC cells) [pM] | forelimb placement: first day of statistically significant improvement vs vehicle [3] [days] | forelimb placement score improvement vs vehicle control [3] | forelimb placement score improvement vs vehicle control, percent [3] [%] | stepping test: first day of statistically significant effect vs vehicle [4] [days] | body swing test: first day of statistically significant improvement vs vehicle [5] [days] | mNRS: first day of significant increase in performance vs vehicle [6] [days] | blood flow compared to vehicle controls and to rats receiving TXA301 [7] | blood flow ratio vs vehicle [7] | vessel diameter compared to vehicle controls and to rats receiving TXA301 [7] | vessel diameter vs vehicle [7] | BDNF expression at doses 100,000 times higher than 1×10^−11 ([1]; compared with 1×10^−11 M) | BDNF expression at doses 100,000 times higher than 1×10^−11 ([2]; compared with 1×10^−11 M) |
| --- | --- | --- | --- | --- | --- | --- | --- | --- | --- | --- | --- | --- | --- | --- | --- | --- |
| Asp^1-Arg^2-Val^3-Tyr^4-Ile^5-His^6-Pro^7 (DRVYIHP) [Ang (1-7), naturally-occurring Ang-(1-7), reference compound] | 10 | 10 | – | – | – | – | – | – | – | – | – | – | – | – | – | – |
| Ala^1-Arg^2-Val^3-Ser^4-Ile^5-His^6-Cys^7 (ARVSIHC) [TXA302] | – | – | approximately 1×10^−9 M | 10 | 15 | more than 7 points | ~78 | 15 | 15 | 15 | markedly improved blood flow | statistically significant improvement | increased vessel diameter | statistically significant improvement | – | – |
| TXA301: angiotensin (1-7) peptide coded TXA301 (SEQ ID NO: 20); sequence not printed in the text (DRVSIHC) | 0.01 | 0.01 | – | – | 22 | 4 points | ~44 | 15 | 22 | 15 | – | statistically significant improvement | – | statistically significant improvement | statistically similar levels of expression | statistically similar levels of expression |
